Laboratory results reported in publication PMC11793105, “A kalihinol analog disrupts apicoplast function and vesicular trafficking in P. falciparum malaria” (Science (New York, N.Y.), 2024).

Assays:
P. falciparum cultures = assay: Exponential killing rate at IC80; type: cell-based, Plasmodium falciparum; conditions: triplicate
[1] = tested on: P. falciparum 3D7 parasites; assay: Isopentenyl pyrophosphate (IPP) rescue assay; type: cell-based, Plasmodium falciparum; conditions: drug at IC80 for one IEC before IPP (200 μM)
Text: Fig. 2. […] Nuclei are stained with 4’,6-diamidino-2-phenylindole (DAPI; blue). […] (B) Dose-dependent interactions between MED6-189 (blue) and various antimalarials with known mechanisms of action (red). […] The regression line represents a nonlinear regression (variable slope with four parameters), with significant differences considered if P < 0.05. […] Isobologram curves are expected to be parallel to the diagonal for additive drug pairs, concave for synergistic drug pairs, and convex for antagonistic drug pairs. […] The analysis was performed using a two-way ANOVA, n = 3, with P < 0.05 significance.
IPP is a product of the MEP/DOXP pathway, and its supplementation reduces susceptibility to MEP inhibitors. […] Parasites were drugged at 80% inhibitory concentrations (IC80) for one IEC before IPP (200 μM) supplementation.

## O=CN(O)CCCP(=O)(O)O [fosmidomycin, reference compound]
P. falciparum cultures; at IC80, 48 HPS
  Exponential killing rate k = (1/t)* log10(N0/Nt): 0.007019
P. falciparum cultures; at IC80, 72 HPS
  Exponential killing rate k = (1/t)* log10(N0/Nt): 0.01081
P. falciparum cultures; at IC80, 100 HPS
  Exponential killing rate k = (1/t)* log10(N0/Nt): 0.008797
[1]
  rescue of parasites by IPP supplementation: survived the second IEC and initiated a third cycle
